From ChEMBL document CHEMBL4339212, “Novel 7-formyl-naphthyridyl-ureas derivatives as potential selective FGFR4 inhibitors: Design, synthesis, and biological activity studies” (Bioorg Med Chem, 2019)

How the values were obtained:
Hep 3B2 [1] = experiment: cells; conditions: Homo sapiens, Hep3B, 72 h
Huh-7 [2] = experiment: cells; conditions: Homo sapiens, Huh-7, 72 h
SK-HEP1 = experiment: Antiproliferative activity against human SKHEP1 cells without FGFR4 gene amplification assessed as inhibition of cell proliferation incubated for 72 hrs by CellTiter-Glo method; type: functional, cell-based; conditions: SK-HEP1, 72 h
[3] = biological target: Fibroblast growth factor receptor 1 (Homo sapiens, UniProt P11362); experiment: Inhibition of FGFR1 (unknown origin) incubated for 60 mins by caliper microfluidic mobility shift technology based assay
[4] = AUC in Sprague-Dawley rat at 5 mg/kg, ig measured after 5 mins to 24 hrs by LC-MS analysis; type: ADME, organism-based; set-up: dose 5 mg/kg, time 0.083-24 hr, route […]; conditions: in vivo, po
[5] = Cmax in Sprague-Dawley rat at 5 mg/kg, ig measured after 5 mins to 24 hrs by LC-MS analysis; type: ADME, organism-based; set-up: dose 5 mg/kg, route […]; conditions: in vivo, po
[6] = Half life in Sprague-Dawley rat at 5 mg/kg, ig measured after 5 mins to 24 hrs by LC-MS analysis; type: ADME, organism-based; conditions: in vivo, po
[7] = Mean residence time in Sprague-Dawley rat at 5 mg/kg, ig measured after 5 mins to 24 hrs by LC-MS analysis; type: ADME, organism-based; conditions: in vivo, po
Huh-7 [8] = experiment: Antitumor activity against human HuH7 cells xenografted in nude BALB/c mouse assessed as inhibition of tumor growth at 30 mg/kg bid for 14 days and measured twice per week relative to untreated control; type: functional; conditions: Huh-7, 336 h, read-out: TGI
Hep 3B2 [9] = experiment: Antitumor activity against human Hep3B cells xenografted in nude BALB/c mouse assessed as inhibition of tumor growth at 10 mg/kg bid for 14 days and measured twice per week relative to untreated control; type: functional; conditions: 336 h, read-out: TGI

Sequence of Fibroblast growth factor receptor 1 (P11362 whole entry): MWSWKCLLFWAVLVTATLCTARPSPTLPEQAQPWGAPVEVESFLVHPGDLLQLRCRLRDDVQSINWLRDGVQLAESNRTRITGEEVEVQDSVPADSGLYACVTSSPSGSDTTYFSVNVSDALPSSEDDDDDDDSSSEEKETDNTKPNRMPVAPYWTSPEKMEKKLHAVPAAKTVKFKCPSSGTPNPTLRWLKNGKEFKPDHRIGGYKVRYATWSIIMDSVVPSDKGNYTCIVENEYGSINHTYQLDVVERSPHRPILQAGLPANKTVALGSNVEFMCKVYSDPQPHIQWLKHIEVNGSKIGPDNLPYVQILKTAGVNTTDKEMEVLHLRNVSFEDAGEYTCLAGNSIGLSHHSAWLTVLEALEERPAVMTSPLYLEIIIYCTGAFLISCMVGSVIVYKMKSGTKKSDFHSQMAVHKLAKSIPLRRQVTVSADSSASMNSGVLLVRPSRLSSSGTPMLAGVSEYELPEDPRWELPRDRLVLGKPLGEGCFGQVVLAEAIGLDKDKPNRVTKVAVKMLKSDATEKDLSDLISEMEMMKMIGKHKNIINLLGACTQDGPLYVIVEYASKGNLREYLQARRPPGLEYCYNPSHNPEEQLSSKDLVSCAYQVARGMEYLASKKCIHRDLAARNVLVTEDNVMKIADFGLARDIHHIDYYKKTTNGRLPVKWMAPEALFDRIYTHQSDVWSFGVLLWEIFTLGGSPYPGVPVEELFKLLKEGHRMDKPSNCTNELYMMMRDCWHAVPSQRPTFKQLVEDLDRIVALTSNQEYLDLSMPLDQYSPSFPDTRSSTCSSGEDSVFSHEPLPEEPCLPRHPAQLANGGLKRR

Compound	IC50 (Hep 3B2 [1])	IC50 (Huh-7 [2])	IC50 (SK-HEP1)	IC50 [3]	AUC [4]	Cmax [5]	half-life [6]	MRT [7]	inhibition in vivo at 30 mg/kg (Huh-7 [8])	inhibition in vivo at 10 mg/kg (Hep 3B2 [9])
COC[C@@H]1CCCN1c1cc(NC(=O)N2CCCc3cc(CN4CCOCC4=O)c(C=O)nc32)ncc1C#N	22.9 nM	65.3 nM	> 10000 nM	> 10000 nM	–	–	–	–	–	–
COCCNc1cc(NC(=O)N2CCCc3cc(CN4CC[C@H](OC)C4=O)c(C=O)nc32)ncc1C#N	2.3 nM	9 nM	> 10000 nM	> 10000 nM	11300 ng·h/mL	–	–	–	–	–
CN(C)C1CCN(c2cc(NC(=O)N3CCCc4cc(CN5CCOCC5=O)c(C=O)nc43)ncc2C#N)C1 (stereo not drawn)	93.8 nM	297 nM	> 10000 nM	> 10000 nM	–	–	–	–	–	–
CO[C@@H]1CCN(Cc2cc3c(nc2C=O)N(C(=O)Nc2cc(N[C@@H]4CCOC4)c(C#N)cn2)CCC3)C1=O	1.8 nM	5.4 nM	> 10000 nM	> 10000 nM	–	–	–	–	–	–
CO[C@H]1CCN(c2cc(NC(=O)N3CCCc4cc(CN5C(=O)OC[C@@H]5C)c(C=O)nc43)ncc2C#N)C1	39.3 nM	34.6 nM	> 10000 nM	> 10000 nM	–	–	–	–	–	–
CO[C@@H]1CCN(c2cc(NC(=O)N3CCCc4cc(CN5CCOC5=O)c(C=O)nc43)ncc2C#N)C1	9.9 nM	10.2 nM	> 10000 nM	> 10000 nM	–	–	–	–	–	–
N#Cc1cnc(NC(=O)N2CCCc3cc(CN4CCOCC4=O)c(C=O)nc32)cc1S[C@@H]1CCOC1	22.7 nM	50.1 nM	> 10000 nM	> 10000 nM	6780 ng·h/mL	–	–	–	–	–
COc1ccccc1Oc1cc(NC(=O)N2CCCc3cc(CN4CCOCC4=O)c(C=O)nc32)ncc1C#N	46 nM	69 nM	> 10000 nM	> 10000 nM	–	–	–	–	–	–
COC[C@@H](C)Oc1cc(NC(=O)N2CCCc3cc(CN4CCOCC4=O)c(C=O)nc32)ncc1C#N	2.9 nM	7.8 nM	> 10000 nM	> 10000 nM	–	–	–	–	–	–
CO[C@H]1CCOC[C@@H]1Oc1cc(NC(=O)N2CCCc3cc(CN4CCOCC4=O)c(C=O)nc32)ncc1C#N	10.9 nM	40.8 nM	> 10000 nM	> 10000 nM	–	–	–	–	–	–
N#Cc1cnc(NC(=O)N2CCCc3cc(CN4CCCCOC4=O)c(C=O)nc32)cc1N[C@@H]1CCOC1	2.3 nM	4.9 nM	> 10000 nM	> 10000 nM	–	–	–	–	–	–
CO[C@H]1CCN(c2cc(NC(=O)N3CCCc4cc(CN5CCOCC5=O)c(C=O)nc43)ncc2C#N)C1	24.9 nM	27.5 nM	> 10000 nM	> 10000 nM	14700 ng·h/mL	3360 ng/mL	1.2 h	2.6 h	–	–

The remaining compounds from weak to strong by IC50 (Hep 3B2 [1]), led by results:

IC50 (Hep 3B2 [1])	IC50 (Huh-7 [2])	IC50 (SK-HEP1)	IC50 [3]	AUC [4]	Cmax [5]	half-life [6]	MRT [7]	Compound	inhibition in vivo at 30 mg/kg (Huh-7 [8])	inhibition in vivo at 10 mg/kg (Hep 3B2 [9])
69 nM	20.7 nM	> 10000 nM	> 10000 nM	–	–	–	–	COc1ccncc1Nc1cc(NC(=O)N2CCCc3cc(CN4CCOCC4=O)c(C=O)nc32)ncc1C#N	–	–
38.7 nM	29.6 nM	> 10000 nM	> 10000 nM	–	–	–	–	CO[C@H]1CCN(c2cc(NC(=O)N3CCCc4cc(CN5CCOC5=O)c(C=O)nc43)ncc2C#N)C1	–	–
27.7 nM	51.8 nM	> 10000 nM	> 10000 nM	–	–	–	–	COCCOc1cc(NC(=O)N2CCCc3cc(CN4CCOCC4=O)c(C=O)nc32)ncc1C#N	–	–
20.8 nM	32.2 nM	> 10000 nM	> 10000 nM	–	–	–	–	COCCSc1cc(NC(=O)N2CCCc3cc(CN4CCOCC4=O)c(C=O)nc32)ncc1C#N	–	–
14.5 nM	36.1 nM	> 10000 nM	> 10000 nM	1950 ng·h/mL	–	–	–	N#Cc1cnc(NC(=O)N2CCCc3cc(CN4CCOCC4=O)c(C=O)nc32)cc1S[C@H]1CCOC1	–	–
13.6 nM	40.5 nM	> 10000 nM	> 10000 nM	–	–	–	–	COC[C@H](C)Nc1cc(NC(=O)N2CCCc3cc(CN4CC[C@H](OC)C4=O)c(C=O)nc32)ncc1C#N	–	–
13.3 nM	11.8 nM	> 10000 nM	> 10000 nM	–	–	–	–	CO[C@@H]1CCN(c2cc(NC(=O)N3CCCc4cc(CN5C(=O)OC[C@@H]5C)c(C=O)nc43)ncc2C#N)C1	–	–
8.9 nM	17.3 nM	> 10000 nM	> 10000 nM	–	–	–	–	COCCNc1cc(NC(=O)N2CCCc3cc(CN4CCOCC4=O)c(C=O)nc32)ncc1C#N	–	–
8.8 nM	16.3 nM	–	–	–	–	–	–	COCCNc1cc(NC(=O)N2CCCc3cc(CN4CCN(C)CC4=O)c(C=O)nc32)ncc1C#N [FGF401]	52.5%	85.9%
3.7 nM	7.2 nM	> 10000 nM	> 10000 nM	–	–	–	–	N#Cc1cnc(NC(=O)N2CCCc3cc(CN4CCCCOC4=O)c(C=O)nc32)cc1N[C@H]1CCOC1	–	–
2.2 nM	4.6 nM	> 10000 nM	> 10000 nM	–	–	–	–	COC[C@@H](C)Oc1cc(NC(=O)N2CCCc3cc(CN4CCCCOC4=O)c(C=O)nc32)ncc1C#N	–	–
1.9 nM	8.3 nM	> 10000 nM	> 10000 nM	12300 ng·h/mL	–	–	–	COCCNc1cc(NC(=O)N2CCCc3cc(CN4CC[C@@H](OC)C4=O)c(C=O)nc32)ncc1C#N	–	–
1 nM	2.7 nM	> 10000 nM	> 10000 nM	–	–	–	–	CO[C@@H]1CCC[C@H]1Nc1cc(NC(=O)N2CCCc3cc(CN4CCOCC4=O)c(C=O)nc32)ncc1C#N	–	–
